Laboratory results: PubChem BioAssay AID248 (DTP/NCI, 2004)
Several values for one entry are separate records, joined by “and”; a condition that tells them apart may be missing. Equal values may be shown once. Toxic doses and inconclusive results are not listed. No stated cut-off is given here; in the data, active means T/C of 150% or more; inactive means T/C below 125%.

Tested on: L1210 leukemia ip in BDF1 mice, survival T/C
Experiment: NCI In Vivo Anticancer Drug Screen. Data for tumor model L1210 Leukemia (intraperitoneal) in B6D2F1 (BDF1) mice
Details: endpoint: mean survival time, higher = longer survival
Summary of the method: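 Ratio derived from survival: compound-dosed mice over vehicle-dosed mice, all bearing a transplantable tumor.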

[1] = dose: 100.0 mg/kg/injection, schedule: Q04DX003 (ip), vehicle: saline
[2] = dose: 200.0 mg/kg/injection, schedule: Q04DX003 (ip), vehicle: saline
[3] = dose: 100.0 mg/kg/injection, schedule: Q01DX001 (ip), vehicle: carboxymethylcellulose (CMC)
[4] = dose: 200.0 mg/kg/injection, schedule: Q01DX001 (ip), vehicle: carboxymethylcellulose (CMC)
[5] = dose: 100.0 mg/kg/injection, schedule: Q01DX009 (ip), vehicle: saline with Tween-80
[6] = dose: 200.0 mg/kg/injection, schedule: Q01DX009 (ip), vehicle: saline with Tween-80
[7] = dose: 400.0 mg/kg/injection, schedule: Q01DX009 (ip), vehicle: saline with Tween-80
[8] = dose: 400.0 mg/kg/injection, schedule: Q01DX001 (ip), vehicle: carboxymethylcellulose (CMC)
[9] = dose: 100.0 mg/kg/injection, schedule: Q01DX001 (ip), vehicle: saline with Tween-80
[10] = dose: 200.0 mg/kg/injection, schedule: Q01DX001 (ip), vehicle: saline with Tween-80
[11] = dose: 400.0 mg/kg/injection, schedule: Q01DX001 (ip), vehicle: saline with Tween-80
[12] = dose: 25.0 mg/kg/injection, schedule: Q04DX003 (ip), vehicle: saline with Tween-80
[13] = dose: 50.0 mg/kg/injection, schedule: Q04DX003 (ip), vehicle: saline with Tween-80
[14] = dose: 100.0 mg/kg/injection, schedule: Q04DX003 (ip), vehicle: saline with Tween-80
[15] = dose: 100.0 mg/kg/injection, schedule: Q04DX003 (ip), vehicle: Klucel (hydroxypropylcellulose) (HPC)
[16] = dose: 200.0 mg/kg/injection, schedule: Q04DX003 (ip), vehicle: Klucel (hydroxypropylcellulose) (HPC)
[17] = dose: 400.0 mg/kg/injection, schedule: Q04DX003 (ip), vehicle: Klucel (hydroxypropylcellulose) (HPC)
[18] = dose: 100.0 mg/kg/injection, schedule: Q04DX002 (ip), vehicle: saline with Tween-80
[19] = dose: 200.0 mg/kg/injection, schedule: Q04DX002 (ip), vehicle: saline with Tween-80
[20] = dose: 400.0 mg/kg/injection, schedule: Q04DX002 (ip), vehicle: saline with Tween-80

Measured: T/C

CCCCOP(=O)(OCCCC)Oc1ccc2ccccc2c1
inactive: dose: 50.0 mg/kg/injection, schedule: Q01DX009 (ip), vehicle: other 97 % of control and 88 % of control | dose: 100.0 mg/kg/injection, schedule: Q01DX009 (ip), vehicle: other 94 % of control | dose: 100.0 mg/kg/injection, schedule: Q04DX002 (ip), vehicle: other 94 % of control and 96 % of control | dose: 100.0 mg/kg/injection, schedule: Q04DX003 (ip), vehicle: carboxymethylcellulose (CMC) 102 % of control | dose: 200.0 mg/kg/injection, schedule: Q01DX009 (ip), vehicle: other 100 % of control and 102 % of control | dose: 200.0 mg/kg/injection, schedule: Q04DX002 (ip), vehicle: other 96 % of control and 92 % of control | dose: 200.0 mg/kg/injection, schedule: Q04DX003 (ip), vehicle: carboxymethylcellulose (CMC) 100 % of control | dose: 400.0 mg/kg/injection, schedule: Q04DX002 (ip), vehicle: other 94 % of control and 96 % of control | dose: 400.0 mg/kg/injection, schedule: Q04DX003 (ip), vehicle: carboxymethylcellulose (CMC) 97 % of control

CC1(c2ccc(N(CCCl)CCCl)cc2)NC(=O)NC1=O (stereo not drawn)
inactive: dose: 12.5 mg/kg/injection, schedule: Q04DX003 (ip), vehicle: saline 98 % of control | dose: 25.0 mg/kg/injection, schedule: Q04DX003 (ip), vehicle: saline 103 % of control | dose: 50.0 mg/kg/injection, schedule: Q04DX003 (ip), vehicle: saline 103 % of control | [1] 113 % of control | [2] 121 % of control

COc1ccc(/C=C(\CCCOC(C)=O)[N+](=O)[O-])cc1OC
inactive: [3] 104 % of control | [4] 101 % of control

O=C(CCC(C(=O)c1ccccc1)c1ccccc1)c1ccccc1 (stereo not drawn)
inactive: [5] 104 % of control | [6] 87 % of control | [7] 88 % of control

Nc1nc(Cl)nc2c1ncn2C1CC(O)C(CO)O1 (stereo not drawn)
inactive: dose: 44.4 mg/kg/injection, schedule: Q01DX001 (ip), vehicle: carboxymethylcellulose (CMC) 118 % of control | dose: 50.0 mg/kg/injection, schedule: Q01DX001 (ip), vehicle: carboxymethylcellulose (CMC) 109 % of control | dose: 66.6 mg/kg/injection, schedule: Q01DX001 (ip), vehicle: carboxymethylcellulose (CMC) 112 % of control | [3] 109 % of control and 118 % of control | [4] 120 % of control and 124 % of control | [8] 102 % of control

COC(=O)C(CCSC)NC(=O)C(NC(=O)c1cnc2ccccc2n1)C(C)C (stereo not drawn)
inactive: [3] 91 % of control | [4] 89 % of control | [8] 96 % of control

COC(=O)c1ccc(C(C)=O)cc1
inactive: [9] 103 % of control | [10] 97 % of control | [11] 100 % of control

CC(=O)c1ccccc1OCC(O)CN1CCN(c2ccccc2)CC1 (stereo not drawn)
inactive: dose: 25.0 mg/kg/injection, schedule: Q01DX009 (ip), vehicle: saline with Tween-80 94 % of control | [12] 100 % of control | dose: 50.0 mg/kg/injection, schedule: Q01DX009 (ip), vehicle: saline with Tween-80 101 % of control | [13] 103 % of control | [5] 101 % of control | [14] 97 % of control

CC(C)NC(=O)N(c1ccccc1)c1ccccc1
inactive: dose: 100.0 mg/kg/injection, schedule: Q01DX009 (ip), vehicle: gum acacia 104 % of control | dose: 100.0 mg/kg/injection, schedule: Q04DX003 (ip), vehicle: gum acacia 97 % of control | dose: 200.0 mg/kg/injection, schedule: Q01DX009 (ip), vehicle: gum acacia 111 % of control | dose: 200.0 mg/kg/injection, schedule: Q04DX003 (ip), vehicle: gum acacia 100 % of control | dose: 400.0 mg/kg/injection, schedule: Q01DX009 (ip), vehicle: gum acacia 101 % of control | dose: 400.0 mg/kg/injection, schedule: Q04DX003 (ip), vehicle: gum acacia 99 % of control

COC(=O)/C=C/C=C/c1ccc(Br)cc1
inactive: [1] 91 % of control | [2] 92 % of control | dose: 400.0 mg/kg/injection, schedule: Q04DX003 (ip), vehicle: saline 92 % of control

O=S(c1ccccc1)c1c(Cl)c(Cl)nc(Cl)c1Cl (stereo not drawn)
inactive: dose: 6.25 mg/kg/injection, schedule: Q01DX009 (ip), vehicle: Klucel (hydroxypropylcellulose) (HPC) 104 % of control | dose: 12.5 mg/kg/injection, schedule: Q01DX009 (ip), vehicle: Klucel (hydroxypropylcellulose) (HPC) 106 % of control | dose: 25.0 mg/kg/injection, schedule: Q01DX009 (ip), vehicle: Klucel (hydroxypropylcellulose) (HPC) 104 % of control | [15] 105 % of control | [16] 90 % of control

COC(=O)CCNCc1ccccc1
inactive: dose: 100.0 mg/kg/injection, schedule: Q01DX009 (ip), vehicle: Klucel (hydroxypropylcellulose) (HPC) 103 % of control | [15] 106 % of control | dose: 200.0 mg/kg/injection, schedule: Q01DX009 (ip), vehicle: Klucel (hydroxypropylcellulose) (HPC) 99 % of control | [16] 98 % of control | dose: 400.0 mg/kg/injection, schedule: Q01DX009 (ip), vehicle: Klucel (hydroxypropylcellulose) (HPC) 99 % of control | [17] 103 % of control

C#CCO
inactive: dose: 12.0 mg/kg/injection, schedule: Q01DX009 (ip), vehicle: saline 107 % of control | dose: 25.0 mg/kg/injection, schedule: Q01DX009 (ip), vehicle: saline 110 % of control | dose: 50.0 mg/kg/injection, schedule: Q01DX009 (ip), vehicle: saline 94 % of control

CCc1cccc(CC)c1NC(=O)Nc1cc(Cl)ccc1C
inactive: [12] 94 % of control | [13] 105 % of control and 86 % of control | [9] 105 % of control | [5] 97 % of control and 111 % of control | [18] 95 % of control and 103 % of control | [14] 87 % of control and 91 % of control | [10] 90 % of control | [6] 97 % of control and 113 % of control | [19] 103 % of control | dose: 200.0 mg/kg/injection, schedule: Q04DX003 (ip), vehicle: saline with Tween-80 91 % of control | [11] 89 % of control | [7] 94 % of control and 97 % of control | [20] 98 % of control and 89 % of control | dose: 400.0 mg/kg/injection, schedule: Q04DX003 (ip), vehicle: saline with Tween-80 88 % of control

O=C([O][Bi]([c]1ccccc1)[c]1ccccc1)C(F)(F)F
inactive: [18] 95 % of control | [19] 95 % of control | [20] 92 % of control

FC(F)(F)c1ccc2c(c1)N(CCCN(CCCl)CCCl)c1ccccc1S2
inactive: dose: 3.12 mg/kg/injection, schedule: Q01DX001 (ip), vehicle: saline with Tween-80 102 % of control | dose: 3.12 mg/kg/injection, schedule: Q01DX009 (ip), vehicle: saline with Tween-80 102 % of control | dose: 6.25 mg/kg/injection, schedule: Q01DX001 (ip), vehicle: saline with Tween-80 102 % of control | dose: 6.25 mg/kg/injection, schedule: Q01DX009 (ip), vehicle: saline with Tween-80 98 % of control | dose: 12.5 mg/kg/injection, schedule: Q01DX001 (ip), vehicle: saline with Tween-80 100 % of control | dose: 12.5 mg/kg/injection, schedule: Q01DX009 (ip), vehicle: saline with Tween-80 100 % of control | dose: 12.5 mg/kg/injection, schedule: Q04DX003 (ip), vehicle: saline with Tween-80 102 % of control | [12] 113 % of control | [13] 98 % of control | [14] 113 % of control

Cc1ccc(C(=O)c2ccc3c4c(cccc24)CC3)cc1
inactive: [15] 112 % of control | [16] 88 % of control | [17] 100 % of control

O=C(Nc1ccc(S(=O)(=O)O)cc1)c1ccc(C(=O)Nc2ccc(S(=O)(=O)O)cc2)cc1
inactive: dose: 30.0 mg/kg/injection, schedule: Q01DX Z (ip), vehicle: saline 91 % of control | dose: 60.0 mg/kg/injection, schedule: Q01DX Z (ip), vehicle: saline 97 % of control | dose: 120.0 mg/kg/injection, schedule: Q01DX Z (ip), vehicle: saline 93 % of control
